Laboratory results as given in the supplement of paper PMC10307832.

Columns and labels:
Experiment in all cases: relative viability (nuclei count vs DMSO), 5 days (fraction); higher = more cells survive
AGI-6780 + Trametinib = compound: O=C(Nc1cccc(C(F)(F)F)c1)Nc1cc(S(=O)(=O)NC2CC2)ccc1-c1ccsc1 [AGI-6780] + CC(=O)Nc1cccc(-n2c(=O)n(C3CC3)c(=O)c3c(Nc4ccc(I)cc4F)n(C)c(=O)c(C)c32)c1 [Trametinib] (partner 0.02 µM)
Procedure, shortened: (§1)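 Lung cancer cell lines, seeded in 1536-well plates, were treated the following day by pin tool with a single drug or with five library-drug doses (not always all listed) in √10 steps on top of a fixed anchor-drug dose. Cells were fixed and nuclei stained in one step after 5 days, and nuclei were counted. Relative viability is the nuclei count for treated wells divided by that for vehicle wells, reported as medians of duplicate plates.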

AGI-6780 + OSI-027 = compound: O=C(Nc1cccc(C(F)(F)F)c1)Nc1cc(S(=O)(=O)NC2CC2)ccc1-c1ccsc1 [AGI-6780] + COc1cccc2cc(-c3nc([C@H]4CC[C@H](C(=O)O)CC4)n4ncnc(N)c34)[nH]c12 [OSI-027] (partner 0.5 µM)
Procedure, shortened: as §1

AGI-6780 + Crizotinib = compound: O=C(Nc1cccc(C(F)(F)F)c1)Nc1cc(S(=O)(=O)NC2CC2)ccc1-c1ccsc1 [AGI-6780] + C[C@@H](Oc1cc(-c2cnn(C3CCNCC3)c2)cnc1N)c1c(Cl)ccc(F)c1Cl [Crizotinib] (partner 1 µM)
Procedure, shortened: as §1

AGI-6780 + Phenformin = compound: O=C(Nc1cccc(C(F)(F)F)c1)Nc1cc(S(=O)(=O)NC2CC2)ccc1-c1ccsc1 [AGI-6780] + N=C(N)NC(=N)NCCc1ccccc1 [Phenformin] (partner 250 µM)
Procedure, shortened: as §1

| Cell Line | relative viability (AGI-6780 + Trametinib; first compound 0.253 µM) | relative viability (AGI-6780 + Trametinib; first compound 0.8 µM) | relative viability (AGI-6780 + Trametinib; first compound 2.53 µM) | relative viability (AGI-6780 + Trametinib; first compound 8 µM) | relative viability (AGI-6780 + OSI-027; first compound 0.08 µM) | relative viability (AGI-6780 + OSI-027; first compound 0.253 µM) | relative viability (AGI-6780 + OSI-027; first compound 0.8 µM) | relative viability (AGI-6780 + OSI-027; first compound 2.53 µM) | relative viability (AGI-6780 + OSI-027; first compound 8 µM) | relative viability (AGI-6780 + Crizotinib; first compound 0.08 µM) | relative viability (AGI-6780 + Crizotinib; first compound 0.253 µM) | relative viability (AGI-6780 + Crizotinib; first compound 0.8 µM) | relative viability (AGI-6780 + Crizotinib; first compound 2.53 µM) | relative viability (AGI-6780 + Crizotinib; first compound 8 µM) | relative viability (AGI-6780 + Phenformin; first compound 0.08 µM) | relative viability (AGI-6780 + Phenformin; first compound 0.253 µM) | relative viability (AGI-6780 + Phenformin; first compound 0.8 µM) | relative viability (AGI-6780 + Phenformin; first compound 2.53 µM) | relative viability (AGI-6780 + Phenformin; first compound 8 µM) | relative viability (AGI-6780 + Trametinib; first compound 0.08 µM) |
| --- | --- | --- | --- | --- | --- | --- | --- | --- | --- | --- | --- | --- | --- | --- | --- | --- | --- | --- | --- | --- |
| NCI-H322M | 0.525 | 0.525 | 0.547 | 0.499 | 0.557 | 0.562 | 0.645 | 0.544 | 0.64 | 0.785 | 0.861 | 1.02 | 0.986 | 0.858 | 0.755 | 0.788 | 0.816 | 0.808 | 0.85 | – |
| NCI-H358 | 0.174 | 0.132 | 0.112 | 0.136 | 0.846 | 0.753 | 0.778 | 0.467 | 0.79 | 0.76 | 0.566 | 0.573 | 0.528 | 0.471 | 0.363 | 0.317 | 0.438 | 0.35 | 0.394 | 0.139 |
| NCI-H441 | 0.49 | 0.553 | 0.422 | 0.51 | 0.78 | 0.922 | 0.599 | 0.54 | 0.504 | 0.766 | 0.988 | 1.05 | 0.513 | 0.887 | 1.07 | 0.964 | 0.822 | 0.668 | 0.787 | 0.554 |
| NCI-H460 | 0.149 | 0.117 | 0.1 | 0.167 | 0.752 | 0.639 | 0.845 | 0.574 | 0.694 | 0.912 | 0.963 | 1.19 | 0.759 | 1.06 | 0.529 | 0.527 | 0.568 | 0.585 | 0.524 | 0.286 |
| NCI-H520 | 0.628 | 0.58 | 0.593 | 0.666 | 0.293 | 0.3 | 0.303 | 0.189 | 0.28 | 0.936 | 0.729 | 1.12 | 0.753 | 0.774 | 0.733 | 0.699 | 0.743 | 0.431 | 0.622 | 0.652 |
| NCI-H596 | 0.712 | 0.655 | 0.652 | 0.777 | 0.803 | 0.841 | 0.643 | – | 0.647 | 0.928 | 1 | 0.912 | 0.773 | 1.03 | 0.739 | 0.876 | 0.758 | – | 0.752 | 0.841 |
| NCI-H647 | 0.505 | 0.476 | 0.45 | 0.474 | 0.784 | 0.657 | 0.673 | 0.668 | 0.714 | 1.1 | 1.13 | 1.38 | 0.96 | 1.15 | 0.409 | 0.609 | 0.729 | 0.408 | 0.744 | 0.499 |
| NCI-H650 | 1.07 | 0.935 | 0.823 | 0.964 | 0.509 | 0.59 | 0.462 | 0.443 | 0.475 | 0.833 | 0.673 | 0.737 | 0.601 | 0.641 | 0.447 | 0.502 | 0.451 | 0.435 | 0.438 | 0.989 |
| NCI-H661 | 0.61 | 0.558 | 0.542 | 0.62 | 0.722 | 0.745 | 0.933 | 0.661 | 0.772 | 1.02 | 0.921 | 1.22 | 0.996 | 1.08 | 0.284 | 0.344 | 0.27 | 0.261 | 0.252 | 0.671 |
| NCI-H727 | 0.396 | 0.372 | 0.365 | 0.38 | 0.639 | 0.821 | 0.617 | 0.494 | 0.685 | 0.887 | 0.702 | 0.842 | 0.844 | 0.843 | 0.62 | 0.536 | 0.687 | 0.563 | 0.698 | 0.415 |
| NCI-H838 | 0.517 | 0.481 | 0.474 | 0.531 | 0.424 | 0.434 | 0.357 | 0.378 | 0.39 | 0.979 | 0.795 | 0.973 | 0.812 | 0.844 | 0.644 | 0.637 | 0.643 | 0.516 | 0.631 | 0.505 |
| NCI-H1355 | 0.496 | 0.465 | 0.354 | 0.404 | 0.444 | 0.456 | 0.422 | 0.303 | 0.401 | 1.04 | 1.02 | 1.08 | 0.943 | 1.01 | 0.485 | 0.451 | 0.484 | 0.393 | 0.448 | 0.426 |
| NCI-H1437 | 0.548 | 0.512 | 0.406 | 0.522 | 0.851 | 0.86 | 0.859 | 0.898 | 0.927 | 0.974 | 0.87 | 0.922 | 0.965 | 0.916 | 0.337 | 0.382 | 0.298 | 0.327 | 0.343 | 0.537 |
| NCI-H1650 | 0.555 | 0.653 | 0.623 | 0.757 | 0.641 | 0.597 | 0.856 | 0.552 | 0.638 | 0.966 | 1.01 | 1.14 | 0.938 | 1.02 | 0.387 | 0.407 | 0.498 | 0.4 | 0.382 | 0.559 |
| NCI-H1651 | 0.82 | 0.833 | 0.73 | 0.839 | 0.659 | 0.684 | 0.731 | 0.691 | 0.661 | 0.821 | 0.902 | 0.898 | 0.878 | 0.879 | 0.331 | 0.362 | 0.394 | 0.335 | 0.37 | 0.816 |
| NCI-H1666 | 0.885 | 0.836 | 0.776 | 0.93 | 0.899 | 0.828 | 0.809 | 0.761 | 1.01 | 1.09 | 0.897 | 1.03 | – | 1.05 | 0.51 | 0.573 | 0.534 | 0.554 | 0.618 | 0.936 |
| NCI-H1734 | 0.646 | 0.63 | 0.474 | 0.758 | 0.588 | 0.665 | 0.621 | 0.442 | 0.573 | 0.753 | 0.648 | 0.757 | – | 0.752 | 0.395 | 0.427 | 0.45 | 0.305 | 0.377 | 0.74 |
| NCI-H1755 | 0.775 | 0.723 | 0.737 | 0.802 | 0.836 | 0.758 | 0.677 | 0.503 | 0.666 | 0.878 | 0.818 | 1 | 0.79 | 0.886 | 0.637 | 0.683 | 0.611 | 0.576 | 0.633 | 0.721 |
| NCI-H1792 | 0.332 | 0.611 | – | 0.483 | – | 0.71 | 0.704 | 0.663 | 0.643 | 0.836 | 0.993 | 1.07 | 0.931 | 0.989 | 0.159 | 0.279 | 0.195 | 0.241 | 0.345 | 0.532 |
| NCI-H1915 | 0.304 | 0.298 | 0.246 | 0.274 | 0.678 | 0.663 | 0.594 | 0.465 | 0.623 | 0.885 | 0.88 | 0.902 | 0.857 | 0.835 | 0.37 | 0.371 | 0.369 | 0.374 | 0.376 | 0.314 |
| NCI-H1944 | 0.417 | 0.463 | – | 0.425 | 0.414 | 0.466 | 0.461 | – | 0.425 | 1.16 | 1.12 | 1.25 | 0.926 | 1.02 | 0.212 | 0.215 | 0.213 | – | 0.217 | 0.458 |
| NCI-H1975 | 0.348 | 0.29 | 0.207 | 0.322 | 0.813 | 0.751 | 0.767 | – | 0.67 | 1.07 | 1.05 | 0.965 | 1.02 | 0.876 | 0.437 | 0.427 | 0.41 | – | 0.395 | 0.369 |
| NCI-H1993 | 0.562 | 0.535 | – | 0.604 | 0.367 | 0.614 | 0.46 | 0.588 | 0.554 | 0.899 | 0.913 | 0.931 | 0.84 | 1 | 0.419 | 0.51 | 0.495 | 0.499 | 0.54 | 0.639 |
| NCI-H2009 | 0.272 | 0.243 | 0.202 | 0.225 | 0.667 | 0.7 | 0.575 | 0.668 | 0.696 | 1.02 | 1.09 | 0.976 | 1.01 | 1.05 | 0.432 | 0.426 | 0.496 | 0.518 | 0.47 | 0.264 |
| NCI-H2023 | 0.527 | 0.497 | 0.5 | 0.526 | 0.434 | 0.455 | 0.447 | 0.301 | 0.337 | 0.637 | 0.541 | 0.856 | 0.554 | 0.731 | 0.395 | 0.39 | 0.413 | 0.403 | 0.389 | 0.691 |
| NCI-H2085 | 0.581 | 0.526 | 0.666 | 0.735 | 0.77 | 0.825 | 0.805 | 0.513 | 0.89 | 0.817 | 1.01 | 0.926 | 0.933 | 0.927 | 0.728 | 0.836 | 0.736 | 0.716 | 0.707 | 0.651 |
| NCI-H2087 | 0.183 | 0.218 | 0.213 | 0.194 | 0.866 | 0.564 | 0.608 | 0.405 | 0.626 | 0.869 | 0.922 | 0.851 | 0.86 | 0.919 | 0.5 | 0.502 | 0.471 | 0.438 | 0.492 | 0.253 |
